The data set in a line: Octanol-water distribution coefficient (LogDpH=7.4). To be noted: n-octanol/PBS pH 7.4; radioactive ligand. It counts as physicochemical. As for the experimental part: This distribution coefficient may be determined by measuring the equilibrium distribution, e.g. at room temperature (20° C.o) of a compound in accordance with the invention in a two-phase system containing equal amounts, such as 1.00 ml each, of n-octanol and PBS (pH=7.4), and calculating the logD7.4 value as log 10 (concentration in octanol/concentration in PBS). Instead of the (absolute) concentration of the compound in accordance with the invention in the octanol and the PBS, a parameter which is proportional to the concentration of the compound in each phase may also be used for the calculation, such as the activity of radiation if the compound comprises a radioactive moiety, e.g. a radioactive chelate.
The radioactive ligand of interest (0.7-1.0 MBq) is given to a mixture of n-octanol and PBS (1 ml, 1/1; v/V) in a 1.5 ml reaction tube and shaken vigorously for 3 min. The resulting mixture is centrifuged (9000 rpm, 5 min, RT), and 100 μl of the octanol and PBS phases isolated separately.
Quantification occurs by the determination of the activity of each isolated probe in a γ-counter. The LogDpH=7.4 value is determined by the following equation:
The determination of the final LogDpH=7.4 value is executed in octets. The mean value and standard deviation are determined after the removal of outlying values.
For `C[C@@H](O)[C@H](NC(=O)[C@@H]1CSSC[C@H](NC(=O)[C@@H](Cc2ccccc2)NC(=O)CN2CCN(CC(=O)O)CCN(CC(=O)NCCCC[C@@H](NC(=O)[C@@H](CNC(=O)C[N+](C)(C)Cc3ccc([Si](F)(C(C)(C)C)C(C)(C)C)cc3)NC(=O)[C@@H](CN)NC(=O)[C@@H](CCC(=O)O)NC(=O)[C@H](N)CCC(=O)O)C(=O)O)CCN(CC(=O)O)CC2)C(=O)N[C@@H](Cc2ccc(O)cc2)C(=O)N[C@H](Cc2c[nH]c3ccccc23)C(=O)N[C@@H](CCCCN)C(=O)N[C@@H]([C@@H](C)O)C(=O)N1)C(=O)O` [Compound 05, H-D-Glu-D-Glu-D-Dap-D-Dap(N-SiFAlin-N,N-Mez-Gly)-D-Lys(trans-DOTA-TATE)-OH], the “LogDpH=7.4” value is −1.96 ± 0.06.

Turning to `C[C@@H](O)[C@H](NC(=O)[C@@H]1CSSC[C@H](NC(=O)[C@@H](Cc2ccccc2)NC(=O)CN2CCN(CC(=O)O)CCN(CC(=O)NCCCC[C@@H](NC(=O)[C@@H](CNC(=O)C[N+](C)(C)Cc3ccc([Si](F)(C(C)(C)C)C(C)(C)C)cc3)NC(=O)[C@@H](CCCCN)NC(=O)[C@@H](CCC(=O)O)NC(=O)[C@H](N)CCC(=O)O)C(=O)O)CCN(CC(=O)O)CC2)C(=O)N[C@@H](Cc2ccc(O)cc2)C(=O)N[C@H](Cc2c[nH]c3ccccc23)C(=O)N[C@@H](CCCCN)C(=O)N[C@@H]([C@@H](C)O)C(=O)N1)C(=O)O` [Compound 06, H-D-Glu-D-Glu-D-Lys-D-Dap(N-SiFAlin-N,N-Mez-Gly)-D-Lys(trans-DOTA-TATE)-OH], the “LogDpH=7.4” value is recorded as −2.36 ± 0.03.

With `C[C@@H](O)[C@H](NC(=O)[C@@H]1CSSC[C@H](NC(=O)[C@@H](Cc2ccccc2)NC(=O)CN2CCN(CC(=O)O)CCN(CC(=O)NCCCC[C@@H](NC(=O)C[N+](C)(C)Cc3ccc([Si](F)(C(C)(C)C)C(C)(C)C)cc3)C(=O)O)CCN(CC(=O)O)CC2)C(=O)N[C@@H](Cc2ccc(O)cc2)C(=O)N[C@H](Cc2c[nH]c3ccccc23)C(=O)N[C@@H](CCCCN)C(=O)N[C@@H]([C@@H](C)O)C(=O)N1)C(=O)O` [[Ga]01, N-SiFAlin-N,N-Me2-Gly-D-Lys(trans-[^natGa] DOTA-TATE)-OH, metal not drawn], the “LogDpH=7.4” value is on record as −1.19 ± 0.07.

As for `C[C@@H](O)[C@H](NC(=O)[C@@H]1CSSC[C@H](NC(=O)[C@@H](Cc2ccccc2)NC(=O)CN2CCN3CCN(CC(=O)NC[C@@H](NC(=O)C[N+](C)(C)Cc4ccc([Si](F)(C(C)(C)C)C(C)(C)C)cc4)C(=O)O)CCN(CC2)CC(=O)[O][Ga+][O]C(=O)C3)C(=O)N[C@@H](Cc2ccc(O)cc2)C(=O)N[C@H](Cc2c[nH]c3ccccc23)C(=O)N[C@@H](CCCCN)C(=O)N[C@@H]([C@@H](C)O)C(=O)N1)C(=O)O` [[Ga]02, N-SiFAlin-N, N-Me2-Gly-D-Dap(trans-[^natGa] DOTA-TATE)-OH], the “LogDpH=7.4” value is −1.03 ± 0.04.

As to `C[C@@H](O)[C@H](NC(=O)[C@@H]1CSSC[C@H](NC(=O)[C@@H](Cc2ccccc2)NC(=O)CN2CCN(CC(=O)O)CCN(CC(=O)NCCCC[C@@H](NC(=O)[C@@H](CNC(=O)C[N+](C)(C)Cc3ccc([Si](F)(C(C)(C)C)C(C)(C)C)cc3)NC(=O)[C@@H](CCCNC(N)=O)NC(=O)[C@@H](CCCNC(N)=O)NC(=O)[C@H](N)CCCNC(N)=O)C(=O)O)CCN(CC(=O)O)CC2)C(=O)N[C@@H](Cc2ccc(O)cc2)C(=O)N[C@H](Cc2c[nH]c3ccccc23)C(=O)N[C@@H](CCCCN)C(=O)N[C@@H]([C@@H](C)O)C(=O)N1)C(=O)O` [[Ga]03, H-D -Cit-D -Cit-D -Cit-D-Dap(N-SiFAlin-N,N-Me2-Gly)-D-Lys(trans-[na′Ga] DOTA-TATE)-OH], the “LogDpH=7.4” value is −2.27 ± 0.04.

For `C[C@@H](O)[C@H](NC(=O)[C@@H]1CSSC[C@H](NC(=O)[C@@H](Cc2ccccc2)NC(=O)CN2CCN(CC(=O)O)CCN(CC(=O)NCCCC[C@@H](NC(=O)[C@@H](CNC(=O)C[N+](C)(C)Cc3ccc([Si](F)(C(C)(C)C)C(C)(C)C)cc3)NC(=O)[C@@H](CCCNC(N)=O)NC(=O)[C@@H](CCCNC(N)=O)NC(=O)[C@H](N)CCC(=O)O)C(=O)O)CCN(CC(=O)O)CC2)C(=O)N[C@@H](Cc2ccc(O)cc2)C(=O)N[C@H](Cc2c[nH]c3ccccc23)C(=O)N[C@@H](CCCCN)C(=O)N[C@@H]([C@@H](C)O)C(=O)N1)C(=O)O` [[Ga]04, H-D-Glu-D -Cit-D -Cit-D-Dap(N-SiFAlin-N,N-Mez-Gly)-D-Lys(trans-[^natGa] DOTA-TATE)-OH, metal not drawn], the “LogDpH=7.4” value is −2.30 ± 0.03.

`C[C@@H](O)[C@H](NC(=O)[C@@H]1CSSC[C@H](NC(=O)[C@@H](Cc2ccccc2)NC(=O)CN2CCN3CCN(CC(=O)NCCCC[C@@H](NC(=O)[C@@H](CNC(=O)C[N+](C)(C)Cc4ccc([Si](F)(C(C)(C)C)C(C)(C)C)cc4)NC(=O)[C@@H](CN)NC(=O)[C@@H](CCC(=O)O)NC(=O)[C@H](N)CCC(=O)O)C(=O)O)CCN(CC2)CC(=O)[O][Ga+][O]C(=O)C3)C(=O)N[C@@H](Cc2ccc(O)cc2)C(=O)N[C@H](Cc2c[nH]c3ccccc23)C(=O)N[C@@H](CCCCN)C(=O)N[C@@H]([C@@H](C)O)C(=O)N1)C(=O)O` [[Ga]05, H-D-Glu-D-Glu-D-Dap-D-Dap(N-SiFAlin-N,N-Me2-Gly)-D-Lys(trans-[^natGa] DOTA-TATE)-OH]: the “LogDpH=7.4” value is listed as −2.12 ± 0.06.

`C[C@@H](O)[C@H](NC(=O)[C@@H]1CSSC[C@H](NC(=O)[C@@H](Cc2ccccc2)NC(=O)CN2CCN3CCN(CC(=O)NCCCC[C@@H](NC(=O)[C@@H](CNC(=O)C[N+](C)(C)Cc4ccc([Si](F)(C(C)(C)C)C(C)(C)C)cc4)NC(=O)[C@@H](CCCCN)NC(=O)[C@@H](CCC(=O)O)NC(=O)[C@H](N)CCC(=O)O)C(=O)O)CCN(CC2)CC(=O)[O][Ga+][O]C(=O)C3)C(=O)N[C@@H](Cc2ccc(O)cc2)C(=O)N[C@H](Cc2c[nH]c3ccccc23)C(=O)N[C@@H](CCCCN)C(=O)N[C@@H]([C@@H](C)O)C(=O)N1)C(=O)O` [[Ga]06, H-D-Glu-D-Glu-D-Lys-D-Dap(N-SiFAlin-N, N-Me2-Gly)-D-Lys(trans-[^natGa] DOTA-TATE)-OH]: the “LogDpH=7.4” value is −2.28 ± 0.04.

As to `C[C@@H](O)[C@H](NC(=O)[C@@H]1CSSC[C@H](NC(=O)[C@@H](Cc2ccccc2)NC(=O)CN2CCN3CCN(CC(=O)NCCCC[C@@H](NC(=O)[C@@H](CNC(=O)C[N+](C)(C)Cc4ccc([Si](F)(C(C)(C)C)C(C)(C)C)cc4)NC(=O)[C@@H](CCC(=O)O)NC(=O)[C@@H](CCC(=O)O)NC(=O)[C@H](N)CCC(=O)O)C(=O)O)CCN(CC2)CC(=O)[O][Ga+][O]C(=O)C3)C(=O)N[C@@H](Cc2ccc(O)cc2)C(=O)N[C@H](Cc2c[nH]c3ccccc23)C(=O)N[C@@H](CCCCN)C(=O)N[C@@H]([C@@H](C)O)C(=O)N1)C(=O)O` [[Ga]07, H-D-Glu-D-Glu-D-Glu-D-Dap(N-SiFAlin-N,N-Me2-Gly)-D-Lys(trans-[^natGa] DOTA-TATE)-OH], the “LogDpH=7.4” value is on record as −2.30 ± 0.04.

Turning to `C[C@@H](O)[C@H](NC(=O)[C@@H]1CSSC[C@H](NC(=O)[C@@H](Cc2ccccc2)NC(=O)CN2CCN3CCN(CC(=O)NCCCC[C@@H](NC(=O)[C@@H](CCC(=O)O)NC(=O)[C@@H](CNC(=O)C[N+](C)(C)Cc4ccc([Si](F)(C(C)(C)C)C(C)(C)C)cc4)NC(=O)[C@@H](CCC(=O)O)NC(=O)[C@@H](CCC(=O)O)NC(=O)[C@H](N)CCC(=O)O)C(=O)O)CCN(CC2)CC(=O)[O][Ga+][O]C(=O)C3)C(=O)N[C@@H](Cc2ccc(O)cc2)C(=O)N[C@H](Cc2c[nH]c3ccccc23)C(=O)N[C@@H](CCCCN)C(=O)N[C@@H]([C@@H](C)O)C(=O)N1)C(=O)O` [[Ga]08, H-D-Glu-D-Glu-D-Glu-D-Dap(N-SiFAlin-N,N-Me2-Gly)-D-Glu-D-Lys(trans-[^natGa] DOTA-TATE)-OH], the “LogDpH=7.4” value is reported as −2.07 ± 0.04.

As to `C[C@@H](O)[C@H](NC(=O)[C@@H]1CSSC[C@H](NC(=O)[C@@H](Cc2ccccc2)NC(=O)CN2CCN(CC(=O)O)CCN(CC(=O)NCCCC[C@@H](NC(=O)[C@@H](CNC(=O)C[N+](C)(C)Cc3ccc([Si](F)(C(C)(C)C)C(C)(C)C)cc3)NC(=O)[C@@H](CCC(=O)O)NC(=O)[C@@H](CCC(=O)O)NC(=O)[C@@H](CCC(=O)O)NC(=O)[C@]3(O)C[C@@H](O)[C@@H](O)[C@H](O)C3)C(=O)O)CCN(CC(=O)O)CC2)C(=O)N[C@@H](Cc2ccc(O)cc2)C(=O)N[C@H](Cc2c[nH]c3ccccc23)C(=O)N[C@@H](CCCCN)C(=O)N[C@@H]([C@@H](C)O)C(=O)N1)C(=O)O` [[Ga]09, D-(−)-quinic acid-D-Glu-D-Glu-D-Glu-D-Dap(N-SiFAlin-N,N-Me2-Gly)-D-Lys(trans-[^natGa] DOTA-TATE)-OH, metal not drawn], the “LogDpH=7.4” value is reported as −2.28 ± 0.04.

The values are drawn from patent US20250313579A1, “LIGAND COMPOUNDS COMPRISING A CHELATING GROUP AS A BRIDGING GROUP” (Technische Universität München, priority 2021, published 2025).
